These results are taken from patent US11260049B2, “TRPV4 antagonists” (GlaxoSmithKline Intellectual Property (No. 2) Limited, priority 2016, dated 2022).

In this experiment the target is human TRPV4 (Homo sapiens (Human), UniProt Q9HBA0). In words: FLIPR assay for hTRPV4 expressed in BHK cells. Format: cell-based. How it is done: FLIPR Assay for hTRPV4 Expressed in BHK Cells:
TRPV4 channel activation results in an influx of divalent and monovalent cations including calcium. The resulting changes in intracellular calcium were monitored using a calcium specific fluorescent dye Fluo-4 (MDS Analytical Technologies). BHK/AC9 cells transduced with BacMam virus expressing the human TRPV4 gene at a MOI of 78 were plated in a 384 well poly-D lysine coated plate (15,000 cells/well in 50 μL culture medium containing DMEM/F12 with 15 mM HEPES, 10% FBS, 1% Penicillin-Streptomycin and 1% L-glutamine). Cells were incubated for 24 hours at 37° C. and 5% CO2. Culture medium was then aspirated using a Tecan plate-washer and replaced with 20 μL/well of dye loading buffer: HBSS, 500 μM Brilliant Black (MDS Analytical Technologies), and 2 μM Fluo-4 AM. Dye loaded plates were then incubated in the dark at room temperature for 1˜1.5 hours.

Setting [1] is: inhibition of Agonist Compound (EC80)-induced calcium signal, BHK/AC9 cells expressing human TRPV4, read-out: IC50.

pIC50: −log10 of the molar value. Counter-ions that a name gives are not always drawn. Like-named read-outs stand apart in the source and are kept apart here.

As usually defined, the pIC50 is the IC50 on a negative log10 scale, so that one unit is a factor of ten.

Sequence of human TRPV4 (Q9HBA0 whole entry): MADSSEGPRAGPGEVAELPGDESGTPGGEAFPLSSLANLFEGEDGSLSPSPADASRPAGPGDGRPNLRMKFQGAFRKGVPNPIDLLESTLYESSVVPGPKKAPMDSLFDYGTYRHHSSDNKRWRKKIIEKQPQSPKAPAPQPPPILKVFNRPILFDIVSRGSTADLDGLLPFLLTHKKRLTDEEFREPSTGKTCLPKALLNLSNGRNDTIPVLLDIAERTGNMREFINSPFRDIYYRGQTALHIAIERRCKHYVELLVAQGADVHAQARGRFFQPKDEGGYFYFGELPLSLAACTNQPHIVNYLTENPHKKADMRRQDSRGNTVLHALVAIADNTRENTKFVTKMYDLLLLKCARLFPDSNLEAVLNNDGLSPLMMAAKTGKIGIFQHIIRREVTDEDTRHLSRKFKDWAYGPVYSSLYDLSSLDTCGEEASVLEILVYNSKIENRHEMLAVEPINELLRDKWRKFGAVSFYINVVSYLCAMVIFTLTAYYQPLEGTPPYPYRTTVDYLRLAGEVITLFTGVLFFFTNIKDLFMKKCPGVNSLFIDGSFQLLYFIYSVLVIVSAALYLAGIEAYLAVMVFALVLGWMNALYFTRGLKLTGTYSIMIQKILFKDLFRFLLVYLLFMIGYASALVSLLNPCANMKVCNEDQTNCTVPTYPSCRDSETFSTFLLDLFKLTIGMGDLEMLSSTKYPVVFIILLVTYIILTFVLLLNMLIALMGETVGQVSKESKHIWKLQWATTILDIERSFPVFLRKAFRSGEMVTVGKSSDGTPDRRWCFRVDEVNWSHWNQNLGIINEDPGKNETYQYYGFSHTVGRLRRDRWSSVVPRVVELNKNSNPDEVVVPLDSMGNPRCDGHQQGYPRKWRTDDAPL

For the compound `N#Cc1ccc(S(=O)(=O)[C@H]2CN(S(=O)(=O)c3ccc(F)cc3Cl)C[C@]2(O)CO)cc1F` [Example 5, 4-(((3S,4S)-1-((2-chloro-4-fluorophenyl)sulfonyl)-4-hydroxy-4-(hydroxymethyl)pyrrolidin-3-yl)sulfonyl)-2-fluorobenzonitrile], the pIC50 under setting [1] is 7.00 to 8.00.

With `O=S(=O)(c1ccc(Cl)cc1)[C@H]1CN(S(=O)(=O)c2cccnc2OC(F)F)C[C@@]1(O)CO` [Example 67, (3R,4S)-4-((4-chlorophenyl)sulfonyl)-1-((2-(difluoromethoxy)pyridin-3-yl)sulfonyl)-3-(hydroxymethyl)pyrrolidin-3-ol], the pIC50 under setting [1] was 7.00 to 8.00.

For the compound `N#Cc1ccc(S(=O)(=O)N2C[C@H](S(=O)(=O)c3ccc(Cl)cn3)[C@@]3(CNCCO3)C2)c(Cl)c1` [Example 129, 3-chloro-4-(((4S,5R)-4-((5-chloropyridin-2-yl)sulfonyl)-6-oxa-2,9-diazaspiro[4.5]decan-2-yl)sulfonyl)benzonitrile, Hydrochloride], the pIC50 under setting [1] was 7.00 to 8.00.

On to `N#Cc1ccc(S(=O)(=O)[C@H]2CN(S(=O)(=O)c3ccc(OC(F)(F)F)cc3Cl)C[C@@]2(O)CO)cc1F` [Example 15, 4-(((3S,4R)-1-((2-chloro-4-(trifluoromethoxy)phenyl)sulfonyl)-4-hydroxy-4-(hydroxymethyl)pyrrolidin-3-yl)sulfonyl)-2-fluorobenzonitrile], for which, under setting [1], the pIC50 is 7.00 to 8.00.

With `N#Cc1ccc(S(=O)(=O)[C@H]2CN(S(=O)(=O)c3cc(F)c(Cl)cc3Cl)C[C@]2(O)CO)cc1F` [Example 9, 4-(((3S,4S)-1-((2,4-dichloro-5-fluorophenyl)sulfonyl)-4-hydroxy-4-(hydroxymethyl)pyrrolidin-3-yl)sulfonyl)-2-fluorobenzonitrile], the pIC50 under setting [1] is 7.00 to 8.00.

`N#Cc1cc(Cl)ccc1S(=O)(=O)N1C[C@H](S(=O)(=O)c2ccc(Cl)cc2)[C@](O)(CO)C1` [Example 17, 5-chloro-2-(((3R,4S)-4-((4-chlorophenyl)sulfonyl)-3-hydroxy-3-(hydroxymethyl)pyrrolidin-1-yl)sulfonyl)benzonitrile]: the pIC50 under setting [1] was 8.00 to 10.00.

On to `N#Cc1ccc(S(=O)(=O)[C@H]2CN(S(=O)(=O)c3ccc(F)cc3Br)C[C@@]2(O)CO)cc1` [Example 22, 4-(((3S,4R)-1-((2-bromo-4-fluorophenyl)sulfonyl)-4-hydroxy-4-(hydroxymethyl)pyrrolidin-3-yl)sulfonyl)benzonitrile], for which the pIC50 is, setting by setting: (at least one set of experimental runs, TRPV4 FLIPR assay, read-out: average IC50) 7.89; under setting [1], 7.00 to 8.00.

For `N#Cc1ccc(S(=O)(=O)N2C[C@H](S(=O)(=O)c3ccc(Cl)cc3)[C@](O)(CO)C2)c(F)c1` [Example 21, 4-(((3R,4S)-4-((4-chlorophenyl)sulfonyl)-3-hydroxy-3-(hydroxymethyl)pyrrolidin-1-yl)sulfonyl)-3-fluorobenzonitrile], under setting [1], the pIC50 was 7.00 to 8.00.

On to `N#Cc1ccc(S(=O)(=O)[C@H]2CN(S(=O)(=O)c3ccc(C(F)(F)F)cc3Cl)C[C@]2(O)CO)cc1Cl` [Example 80, 2-chloro-4-(((3S,4S)-1-((2-chloro-4-(trifluoromethyl)phenyl)sulfonyl)-4-hydroxy-4-(hydroxymethyl)pyrrolidin-3-yl)sulfonyl)benzonitrile], for which the pIC50 under setting [1] is 7.00 to 8.00.

Consider `N#Cc1cc(Cl)ccc1S(=O)(=O)N1C[C@H](S(=O)(=O)c2ccc(C(F)(F)F)nc2)[C@](O)(CO)C1` [Example 40, 5-chloro-2-(((3R,4S)-3-hydroxy-3-(hydroxymethyl)-4-((6-(trifluoromethyl)pyridin-3-yl)sulfonyl)pyrrolidin-1-yl)sulfonyl)benzonitrile], for which the negative logarithm of the IC50 (pIC50) under setting [1] was 7.00 to 8.00.

As for `Cc1cc(C(F)(F)F)ccc1S(=O)(=O)N1C[C@H](S(=O)(=O)c2ccc(C#N)c(F)c2)[C@](O)(CO)C1` [Example 71, 2-fluoro-4-(((3S,4R)-4-hydroxy-4-(hydroxymethyl)-1-((2-methyl-4-(trifluoromethyl)phenyl)sulfonyl)pyrrolidin-3-yl)sulfonyl)benzonitrile], under setting [1], the pIC50 was 7.00 to 8.00.

Consider `N#Cc1ccc(S(=O)(=O)[C@H]2CN(S(=O)(=O)c3cc(F)c(Cl)cc3Cl)C[C@@]2(O)CO)cc1F` [Example 16, 4-(((3S,4R)-1-((2,4-dichloro-5-fluorophenyl)sulfonyl)-4-hydroxy-4-(hydroxymethyl)pyrrolidin-3-yl)sulfonyl)-2-fluorobenzonitrile], for which the pIC50 under setting [1] was 8.00 to 10.00.

`N#Cc1ccc(S(=O)(=O)N2C[C@H](S(=O)(=O)c3ccc(C(F)(F)F)cc3)[C@](O)(CO)C2)c(OC2CC2)c1` [Example 57, 3-cyclopropoxy-4-(((3R,4S)-3-hydroxy-3-(hydroxymethyl)-4-((4-(trifluoromethyl)phenyl)sulfonyl)pyrrolidin-1-yl)sulfonyl)benzonitrile]: under setting [1], the pIC50 was 7.00 to 8.00.

Turning to `N#Cc1ccccc1S(=O)(=O)N1C[C@H](S(=O)(=O)c2ccc(Cl)cc2)[C@](O)(CO)C1` [Example 47, 2-(((3R,4S)-4-((4-chlorophenyl)sulfonyl)-3-hydroxy-3-(hydroxymethyl)pyrrolidin-1-yl)sulfonyl)benzonitrile], the pIC50 under setting [1] was 7.00 to 8.00.

As to `O=S(=O)(c1ccc(F)c(F)c1)[C@H]1CN(S(=O)(=O)c2ccc(Cl)cc2Cl)C[C@@]1(O)CO` [Example 85, (3R,4S)-1-((2,4-dichlorophenyl)sulfonyl)-4-((3,4-difluorophenyl)sulfonyl)-3-(hydroxymethyl)pyrrolidin-3-ol], the pIC50 under setting [1] is 7.00 to 8.00.

For the compound `N#Cc1ccc(S(=O)(=O)N2C[C@H](S(=O)(=O)c3ccc(Cl)cc3)[C@](O)(CO)C2)c(C(F)F)c1` [Example 48, 4-(((3R,4S)-4-((4-chlorophenyl)sulfonyl)-3-hydroxy-3-(hydroxymethyl)pyrrolidin-1-yl)sulfonyl)-3-(difluoromethyl)benzonitrile], under setting [1], the pIC50 was 8.00 to 10.00.

As to `Cc1ccc(S(=O)(=O)N2C[C@H](S(=O)(=O)c3ccc(C#N)cc3)[C@](O)(CO)C2)c(Cl)c1` [Example 58, 4-(((3S,4R)-1-((2-chloro-4-methylphenyl)sulfonyl)-4-hydroxy-4-(hydroxymethyl)pyrrolidin-3-yl)sulfonyl)benzonitrile], under setting [1], the pIC50 was 7.00 to 8.00.

As to `CCOc1cc(C#N)ccc1S(=O)(=O)N1C[C@H](S(=O)(=O)c2ccc(Cl)cc2)[C@](O)(CO)C1` [Example 49, 4-(((3R,4S)-4-((4-chlorophenyl)sulfonyl)-3-hydroxy-3-(hydroxymethyl)pyrrolidin-1-yl)sulfonyl)-3-ethoxybenzonitrile], the pIC50 under setting [1] was 7.00 to 8.00.

Turning to `COc1cc(C#N)ccc1S(=O)(=O)N1C[C@H](S(=O)(=O)c2ccc(Cl)cc2)[C@](O)(CO)C1` [Example 35, 4-(((3R,4S)-4-((4-chlorophenyl)sulfonyl)-3-hydroxy-3-(hydroxymethyl)pyrrolidin-1-yl)sulfonyl)-3-methoxybenzonitrile], the pIC50 under setting [1] was 8.00 to 10.00.

For the compound `N#Cc1ccc(S(=O)(=O)[C@H]2CN(S(=O)(=O)c3ccc(Cl)cc3Cl)C[C@@]2(O)CO)cc1F` [Example 83, 4-(((3S,4R)-1-((2,4-dichlorophenyl)sulfonyl)-4-hydroxy-4-(hydroxymethyl)pyrrolidin-3-yl)sulfonyl)-2-fluorobenzonitrile], the pIC50 under setting [1] is 8.00 to 10.00.

With `O=S(=O)(c1ccc(Cl)c(Cl)c1)[C@H]1CN(S(=O)(=O)c2ccc(Cl)cc2Cl)C[C@@]1(O)CO` [Example 114, (3R,4S)-1-((2,4-dichlorophenyl)sulfonyl)-4-((3,4-dichlorophenyl)sulfonyl)-3-(hydroxymethyl)pyrrolidin-3-ol], the pIC50 under setting [1] was 7.00 to 8.00.
